Laboratory results published in the NIST ThermoML archive (doi:10.1016/j.jct.2016.07.008).
± gives the expanded uncertainty stated by the source.

Assay: xn = mol fraction of the nth substance listed
Details: Liquid, Vibrating wire viscometry

CC(C)CC(C)(C)C [2,2,4-trimethylpentane] + CCCCO
viscosity [mPa·s]
Details	293.15 K	313.15 K	333.15 K	353.15 K
100 kPa, x2 = 0.3002	0.651 ± 0.011	0.4938 ± 0.0092	0.3855 ± 0.0076	0.3085 ± 0.0066
100 kPa, x2 = 0.5003	0.8986 ± 0.015	0.6427 ± 0.011	0.4739 ± 0.0089	0.3658 ± 0.0074
100 kPa, x2 = 0.8	1.777 ± 0.029	1.151 ± 0.019	0.7766 ± 0.013	0.5523 ± 0.01
1000 kPa, x2 = 0.3002	0.6579 ± 0.012	0.4951 ± 0.0092	0.3922 ± 0.0077	0.3131 ± 0.0067
1000 kPa, x2 = 0.5003	0.9064 ± 0.015	0.6458 ± 0.011	0.4756 ± 0.0089	0.3715 ± 0.0074
1000 kPa, x2 = 0.8	1.805 ± 0.029	1.161 ± 0.019	0.7891 ± 0.014	0.5621 ± 0.01
5000 kPa, x2 = 0.3002	0.6912 ± 0.012	0.5303 ± 0.0097	0.4188 ± 0.0081	0.3362 ± 0.007
5000 kPa, x2 = 0.5003	0.9556 ± 0.016	0.6742 ± 0.012	0.5003 ± 0.0093	0.3955 ± 0.0078
5000 kPa, x2 = 0.8	1.837 ± 0.03	1.216 ± 0.02	0.8182 ± 0.014	0.5811 ± 0.01
10000 kPa, x2 = 0.3002	0.7318 ± 0.013	0.5681 ± 0.01	0.4439 ± 0.0085	0.3574 ± 0.0073
10000 kPa, x2 = 0.5003	0.9979 ± 0.017	0.7086 ± 0.012	0.5334 ± 0.0098	0.4195 ± 0.0081
10000 kPa, x2 = 0.8	1.949 ± 0.031	1.279 ± 0.021	0.868 ± 0.015	0.6183 ± 0.011
20000 kPa, x2 = 0.3002	0.8168 ± 0.014	0.6344 ± 0.011	0.4973 ± 0.0092	0.3982 ± 0.0078
20000 kPa, x2 = 0.5003	1.14 ± 0.019	0.8024 ± 0.014	0.5894 ± 0.011	0.4654 ± 0.0088
20000 kPa, x2 = 0.8	2.161 ± 0.035	1.402 ± 0.023	0.9602 ± 0.016	0.6708 ± 0.012
30000 kPa, x2 = 0.3002	0.9098 ± 0.015	0.7073 ± 0.012	0.552 ± 0.01	0.4475 ± 0.0085
30000 kPa, x2 = 0.5003	1.274 ± 0.021	0.8924 ± 0.015	0.6494 ± 0.011	0.5151 ± 0.0095
30000 kPa, x2 = 0.8	2.353 ± 0.038	1.54 ± 0.025	1.04 ± 0.017	0.7334 ± 0.013
40000 kPa, x2 = 0.3002	1.004 ± 0.017	0.7728 ± 0.013	0.6073 ± 0.011	0.491 ± 0.0091
40000 kPa, x2 = 0.5003	1.415 ± 0.023	0.9864 ± 0.017	0.7134 ± 0.012	0.5714 ± 0.01
40000 kPa, x2 = 0.8	2.578 ± 0.041	1.674 ± 0.027	1.132 ± 0.019	0.793 ± 0.014
50000 kPa, x2 = 0.3002	1.108 ± 0.018	0.8419 ± 0.014	0.6677 ± 0.012	0.5403 ± 0.0099
50000 kPa, x2 = 0.5003	1.562 ± 0.025	1.084 ± 0.018	0.7814 ± 0.013	0.6195 ± 0.011
50000 kPa, x2 = 0.8	2.826 ± 0.045	1.825 ± 0.029	1.232 ± 0.02	0.8609 ± 0.015
60000 kPa, x2 = 0.3002	1.215 ± 0.02	0.9375 ± 0.016	0.7297 ± 0.013	0.592 ± 0.011
60000 kPa, x2 = 0.5003	1.739 ± 0.028	1.186 ± 0.02	0.8534 ± 0.015	0.679 ± 0.012
60000 kPa, x2 = 0.8	3.038 ± 0.048	1.972 ± 0.032	1.328 ± 0.022	0.9278 ± 0.016
70000 kPa, x2 = 0.3002	1.324 ± 0.022	1.005 ± 0.017	0.7944 ± 0.014	0.6322 ± 0.011
70000 kPa, x2 = 0.5003	1.895 ± 0.031	1.292 ± 0.021	0.9294 ± 0.016	0.7319 ± 0.013
70000 kPa, x2 = 0.8	3.308 ± 0.053	2.114 ± 0.034	1.419 ± 0.023	0.9984 ± 0.017
80000 kPa, x2 = 0.3002	1.433 ± 0.023	1.081 ± 0.018	0.857 ± 0.015	0.6788 ± 0.012
80000 kPa, x2 = 0.5003	2.055 ± 0.033	1.402 ± 0.023	1.009 ± 0.017	0.7953 ± 0.014
80000 kPa, x2 = 0.8	3.537 ± 0.056	2.283 ± 0.037	1.531 ± 0.025	1.069 ± 0.018
100000 kPa, x2 = 0.3002	1.679 ± 0.027	1.235 ± 0.02	0.9892 ± 0.017	0.7915 ± 0.014
100000 kPa, x2 = 0.5003	2.387 ± 0.038	1.634 ± 0.027	1.181 ± 0.02	0.9151 ± 0.015
100000 kPa, x2 = 0.8	4.066 ± 0.064	2.619 ± 0.042	1.735 ± 0.028	1.203 ± 0.02
120000 kPa, x2 = 0.3002	1.942 ± 0.031	1.413 ± 0.023	1.133 ± 0.019	0.8951 ± 0.015
120000 kPa, x2 = 0.5003	2.735 ± 0.044	1.882 ± 0.03	1.369 ± 0.023	1.026 ± 0.017
120000 kPa, x2 = 0.8	4.653 ± 0.074	2.954 ± 0.047	1.973 ± 0.032	1.365 ± 0.022
140000 kPa, x2 = 0.3002	2.211 ± 0.036	1.587 ± 0.026	1.279 ± 0.021	1.007 ± 0.017
140000 kPa, x2 = 0.5003	3.099 ± 0.049	2.146 ± 0.034	1.573 ± 0.026	1.14 ± 0.019
140000 kPa, x2 = 0.8	5.322 ± 0.084	3.328 ± 0.053	2.212 ± 0.036	1.526 ± 0.025
